According to the NIST ThermoML archive (doi:10.1016/j.jct.2016.12.015):

Assay: molar heat capacity at constant pressure
Conditions: 101.33 kPa, Crystal, Small (less than 1 g) adiabatic calorimetry

C[C@H]1C[C@@H]2[C@H]([C@@H](O)C[C@@]3(C)[C@H]2CC[C@]3(O)C(=O)CO)[C@@]2(C)C=CC(=O)C=C12 [Methylprednisolone]
Conditions | molar heat capacity at constant pressure [J/K/mol]
5 K | 0.981
6.33 K | 2.001
6.49 K | 2.141
6.65 K | 2.26
6.78 K | 2.357
6.95 K | 2.495
7.1 K | 2.55
7.24 K | 2.74
7.49 K | 3.021
7.82 K | 3.43
8.13 K | 3.81
8.44 K | 4.275
8.75 K | 4.579
9.05 K | 4.913
9.36 K | 5.269
9.69 K | 5.653
10 K | 6.06
10.01 K | 6.058
10.33 K | 6.528
10.66 K | 6.921
11 K | 7.373
11.38 K | 7.86
11.77 K | 8.373
12.06 K | 8.762
12.88 K | 9.96
14.16 K | 11.96
15 K | 13.31
15.44 K | 14.15
16.74 K | 16.54
18.07 K | 19.18
19.43 K | 21.92
20 K | 22.8
22.43 K | 28.16
25 K | 33.3
25.22 K | 33.67
28.44 K | 39.96
30 K | 42.63
31.97 K | 46.03
35 K | 51.54
35.53 K | 52.34
39.09 K | 58.93
40 K | 60.39
42.67 K | 65.35
45 K | 69.3
46.26 K | 71.33
49.86 K | 77.8
50 K | 78.27
53.45 K | 84.8
57.05 K | 91.01
60 K | 96.39
60.67 K | 97.6
64.3 K | 104
67.91 K | 110.8
70 K | 114.2
71.53 K | 116.8
75.17 K | 122.4
78.82 K | 129.7
80 K | 131.5
81.9 K | 134.6
82.48 K | 136
86.1 K | 142.8
86.12 K | 142.4
89.32 K | 147.8
90 K | 149.3
92.91 K | 154.1
96.5 K | 159.9
100 K | 165.9
100.08 K | 165.8
103.66 K | 171.9
107.23 K | 178
110 K | 182.1
110.81 K | 183.4
114.37 K | 188.6
117.93 K | 195.4
120 K | 198.1
121.48 K | 200.9
125.04 K | 206.7
128.59 K | 212
130 K | 213.9
132.14 K | 217.1
135.68 K | 222.2
139.22 K | 228.2
140 K | 229.6
142.74 K | 233.6
146.27 K | 238.8
149.79 K | 244.2
150 K | 245
153.3 K | 250
156.82 K | 254.9
160 K | 260.2
160.33 K | 260.9
163.83 K | 266.4
167.33 K | 271.7
170 K | 275.3
170.82 K | 276.8
174.31 K | 282.2
177.79 K | 287.2
180 K | 290.3
181.26 K | 292.5
184.73 K | 297.4
188.19 K | 302.5
190 K | 305.3
191.65 K | 307.8
195.06 K | 312.7
198.5 K | 318.2
200 K | 320.4
201.93 K | 323.6
205.36 K | 328.5
208.8 K | 333.1
210 K | 335.6
212.23 K | 338.2
215.66 K | 343.7
219.09 K | 349.3
220 K | 350.7
222.53 K | 355
225.95 K | 361
229.38 K | 364.2
230 K | 365.9
232.82 K | 370.1
236.24 K | 375.2
239.67 K | 380.7
240 K | 381.1
243.1 K | 385.9
246.53 K | 391.1
249.92 K | 396.2
250 K | 396.3
253.35 K | 401.5
256.77 K | 406.9
260 K | 411.6
260.19 K | 412
263.6 K | 417.5
267.02 K | 422.9
270 K | 427.1
270.43 K | 428.4
273.84 K | 432.9
277.25 K | 438.4
280 K | 442.9
280.64 K | 443.7
284.03 K | 449
287.42 K | 454
290 K | 458.9
290.79 K | 460.1
294.15 K | 465.4
297.51 K | 471.2
298.15 K | 472.1
300 K | 475.1
300.85 K | 475.9
304.09 K | 481.9
307.42 K | 487.8
310 K | 491.2
310.76 K | 492.9
314.09 K | 498.1
317.42 K | 503
320 K | 507
320.76 K | 508
324.1 K | 513.3
327.44 K | 518.2
330 K | 522.5
330.78 K | 523.9
334.13 K | 529
337.48 K | 534
340 K | 538.4
340.82 K | 539.6
344.16 K | 545.9
347.5 K | 551.7
350 K | 556.8
350.09 K | 556.9
